In patent US10407423B2, “Compounds as inhibitors of DNA methyltransferases” (FUNDACIÓN PARA LA INVESTIGACIÓN MÉDICA APLICADA, priority 2015, dated 2019):

Columns and labels:
human G9a enzyme = human G9a enzyme (Homo sapiens (Human), UniProt Q96KQ7); experiment: G9a enzyme activity assay (TR-FRET); format: biochemical; details: 1 hour at room temperature
Procedure: G9a Enzyme Activity Assay
The biochemical assay to measure G9a enzyme activity relies on time-resolved fluorescence energy transfer (TR-FRET) between europium cryptate (donor) and XL665 (acceptor). TR-FRET is observed when biotinylated histone monomethyl-H3K9 peptide is incubated with cryptate-labeled anti-dimethyl-histone H3K9 antibody (CisBio Cat#61KB2KAE) and streptavidin XL665 (CisBio Cat#610SAXLA), after enzymatic reaction of G9a.
The human G9a enzyme expressed in a baculovirus infected Sf9 cell expression system was obtained from BPS Biosciences (Cat. #51001). Enzyme activity assay was carried out in a white 384-well plate in a final volume of 20 μl, as follow: • 4 μl of vehicle or studied compound 2.5× concentrated prepared in assay buffer (50 mM Tris-HCl, 10 mM NaCl, 4 mM DTT, 0.01% Tween-20 pH9). Final percentage of DMSO was 0.5%. • 2 μl of 1 nM G9a enzyme diluted in assay buffer. Final concentration was 0.2 nM. • Start the reaction by adding 4 μl of substrate mixture containing 20 μM S-adenosylmethionine and 40 nM biotinylated histone monomethyl-H3K9 peptide. • Reaction was carried out during 1 hour at room temperature. • Enzyme activity was stopped by adding 5 μl of cryptate-labeled anti-dimethyl-histone H3K9 antibody. Final concentration 150 nM. • Then, add 5 μl of streptavidin XL665 beads. Final concentration of 16 μM. • Read the plate after 1 hour of incubation at room temperature.
(§1) For each well, fluorescence was measured at 620 nm and 665 nm. A ratio (665 nm/620 nm) was then calculated in order to minimize medium interferences. Positive control was obtained in the presence of the vehicle of the compounds. Negative control was obtained in the absence of G9a enzyme activity. Calculated IC50 values were determined using GraphPrism using 4-parameters inhibition curve.

human DNMT1 = human DNMT1 (Homo sapiens (Human), UniProt P26358); experiment: DNMT1 enzyme activity assay (TR-FRET, EPIgeneous methyltransferase assay); format: biochemical; details: 15 minutes at 37° C.
Sequence of human DNMT1 (P26358 whole entry): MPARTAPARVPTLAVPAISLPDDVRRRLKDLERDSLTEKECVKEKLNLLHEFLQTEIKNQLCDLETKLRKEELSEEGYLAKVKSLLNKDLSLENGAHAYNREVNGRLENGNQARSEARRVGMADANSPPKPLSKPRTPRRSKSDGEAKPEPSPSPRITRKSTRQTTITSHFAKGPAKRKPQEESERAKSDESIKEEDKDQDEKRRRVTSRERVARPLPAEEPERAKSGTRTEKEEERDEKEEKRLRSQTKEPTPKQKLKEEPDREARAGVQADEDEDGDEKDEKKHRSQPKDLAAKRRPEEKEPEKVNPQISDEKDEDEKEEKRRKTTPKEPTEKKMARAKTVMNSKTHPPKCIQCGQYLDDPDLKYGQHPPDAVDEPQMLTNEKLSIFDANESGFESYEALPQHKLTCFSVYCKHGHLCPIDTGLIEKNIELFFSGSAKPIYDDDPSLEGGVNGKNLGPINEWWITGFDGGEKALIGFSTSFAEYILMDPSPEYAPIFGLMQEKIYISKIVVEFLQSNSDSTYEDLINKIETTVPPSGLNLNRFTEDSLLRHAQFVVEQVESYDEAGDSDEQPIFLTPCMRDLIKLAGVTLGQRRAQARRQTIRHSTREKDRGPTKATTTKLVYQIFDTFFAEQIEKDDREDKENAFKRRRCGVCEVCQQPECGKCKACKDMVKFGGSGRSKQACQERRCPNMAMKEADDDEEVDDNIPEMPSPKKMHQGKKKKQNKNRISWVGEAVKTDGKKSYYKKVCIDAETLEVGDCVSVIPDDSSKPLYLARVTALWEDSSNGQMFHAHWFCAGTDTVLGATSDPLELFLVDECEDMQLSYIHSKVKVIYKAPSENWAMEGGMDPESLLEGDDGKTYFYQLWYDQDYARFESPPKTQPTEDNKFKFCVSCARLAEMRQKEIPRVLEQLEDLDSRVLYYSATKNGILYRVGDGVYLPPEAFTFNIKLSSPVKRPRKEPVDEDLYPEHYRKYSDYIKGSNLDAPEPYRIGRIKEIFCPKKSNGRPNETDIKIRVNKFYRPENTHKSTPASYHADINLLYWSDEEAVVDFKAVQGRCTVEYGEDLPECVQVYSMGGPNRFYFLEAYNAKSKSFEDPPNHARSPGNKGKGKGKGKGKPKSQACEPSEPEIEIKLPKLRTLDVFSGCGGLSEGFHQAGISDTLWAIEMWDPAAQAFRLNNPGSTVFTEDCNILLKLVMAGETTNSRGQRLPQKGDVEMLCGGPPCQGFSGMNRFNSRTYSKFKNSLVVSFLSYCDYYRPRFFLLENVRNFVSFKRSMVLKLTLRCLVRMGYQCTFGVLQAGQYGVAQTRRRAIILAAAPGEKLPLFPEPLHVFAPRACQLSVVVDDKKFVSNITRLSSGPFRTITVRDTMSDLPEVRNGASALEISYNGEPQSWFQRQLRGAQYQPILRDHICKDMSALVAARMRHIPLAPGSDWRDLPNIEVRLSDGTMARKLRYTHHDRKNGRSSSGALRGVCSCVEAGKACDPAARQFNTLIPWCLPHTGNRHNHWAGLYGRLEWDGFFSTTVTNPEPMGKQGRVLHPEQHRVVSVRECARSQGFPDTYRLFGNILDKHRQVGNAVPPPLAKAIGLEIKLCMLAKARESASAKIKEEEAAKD
Procedure: DNMT1 Enzyme Activity Assay
The biochemical assay to measure DNMT1 enzyme activity relies on time-resolved fluorescence energy transfer (TR-FRET) between lumi4-Tb (donor) and d2 (acceptor) using the EPlgeneous methyltransferase assay (CisBio Cat#62SAHPEB). TR-FRET is observed when antibody specific to S-adenosylhomocysteine labeled with Lumi4-Tb is incubated with d2-labeled S-adenosylhomocysteine. TR-FRET signal is inversely proportional to the concentration of SAH, product of DNMT1 enzyme activity, in the sample. The human DNMT1 was obtained from Reaction Biology Corp. (Cat# DMT-21-124).
Enzyme activity assay was carried out in a white 384-well plate in a final volume of 20 μl, as follow: • 4 μl of vehicle or studied compound 2.5× concentrated prepared in assay buffer (50 mM Tris-HCl, 1 mM EDTA, 1 mM DTT, 0.1% Triton X-100, 5% glycerol pH 7.5). Final percentage of DMSO was 0.5%. • 2 μl of […] DNMT1 enzyme diluted in assay buffer. Final concentration was 20 nM. • Start the reaction by adding 4 μl of substrate mixture containing 1 μM S-adenosylmethionine and 1 μM poly-deoxy inosine poly-deoxy cytosine (pdI-pdC) DNA. • Reaction was carried out during 15 minutes at 37° C. • Enzyme activity was stopped by adding 2 μl of buffer one of the EPIgeneous methyltransferase assay. • After 10 minutes at room temperature, it was added 4 μl of antibody specific to S-adenosylhomocysteine labeled with Lumi4-Tb 50× diluted in buffer two of the EPIgeneous methyltransferase assay. • Add 4 μl of d2-labeled S-adenosylhomocysteine 31× diluted in buffer two of the EPIgeneous methyltransferase assay. • Read the plate after 1 hour of incubation at room temperature.
as §1

[1] = system: CEMO-1 cells (acute lymphocytic leukemia, ALL); experiment: Cell proliferation assay (CellTiter 96 Aqueous One), CEMO-1; format: cell-based; details: CEMO-1 (ALL), 48 hours of treatment
Procedure: (§2) Cell proliferation was analyzed after 48 hours of in vitro treatment using the CellTiter 96 Aqueous One Solution Cell Proliferation Assay (Promega, Madison, W). This is a colorimetric method for determining the number of viable cells in proliferation.
(§3) For the assay, suspension cells were cultured by triplicate at a density of 1×10^6 cells/ml in 96-well plates (100.000 cells/well, 100 μl/well), except for OCI-Ly3 and OCI-Ly10 cell lines which were cultured at a density of 0.5×10^6 cells/ml (50,000 cells/well, 100 μl/well) and for HepG2, Hep3B and PLC/PRF/5 cell lines which were cultured at a density of 3000 cells/well, 100 μl/well). Adherent cells were obtained from 80-90% confluent flasks and 100 μl of cells were seeded at a density of 5000 cells/well in 96-well plates by triplicate. Before addition of the compounds, adherent cells were allowed to attach to the bottom of the wells for 12 hours. In all cases, only the 60 inner wells were used to avoid any border effects.
(§4) After 48 hours of treatment, plates with suspension cells were centrifuged at 800 g for 10 minutes and medium was removed. The plates with adherent cells were flicked to remove medium. Then, cells were incubated with 100 μl/well of medium and 20 μl/well of CellTiter 96 Aqueous One Solution reagent. After 1-3 hours of incubation at 37° C., absorbance was measured at 490 nm in a 96-well plate reader. The background absorbance was measured in wells with only cell line medium and solution reagent. Data was calculated as a percentage of total absorbance of treated cell/absorbance of non treated cells.
(§5) These cancer cell lines and primary cultures correspond to acute lymphocytic leukemia (ALL), CEMO-1, to activated B-cell-like diffuse large B-cell lymphoma (ABC-DLBCL), OCI-Ly3 and OCI-Ly10 and to hepatocellular carcinoma cells (HCC), HepG2, Hep3B and PLC/PRF/5.

[2] = system: OCI-Ly3 cells (ABC-DLBCL); experiment: Cell proliferation assay (CellTiter 96 Aqueous One), OCI-Ly3; format: cell-based; details: Homo sapiens, 48 hours of treatment
Procedure: as §2
as §3, with “In all cases, only the 60 inner wells were used to avoid any border effects.” left out
as §4, with “The plates with adherent cells were flicked to remove medium. Then, cells were incubated with 100 μl/well of medium and 20 μl/well of CellTiter 96 Aqueous One Solution reagent.” left out, “cells. […]” for “cells.”

[3] = system: OCI-Ly10 cells (ABC-DLBCL); experiment: Cell proliferation assay (CellTiter 96 Aqueous One), OCI-Ly10; format: cell-based; details: Homo sapiens, 48 hours of treatment
Procedure: as §2
as §3, with “In all cases, only the 60 inner wells were used to avoid any border effects.” left out
as §4, with “The plates with adherent cells were flicked to remove medium. Then, cells were incubated with 100 μl/well of medium and 20 μl/well of CellTiter 96 Aqueous One Solution reagent.” left out, “cells. […]” for “cells.”

[4] = system: HepG2 cells (hepatocellular carcinoma); experiment: Cell proliferation assay (CellTiter 96 Aqueous One), HepG2; format: cell-based; details: HepG2 (HCC), 48 hours of treatment
Procedure: as §2, §3, §4, §5

[5] = system: Hep3B cells (hepatocellular carcinoma); experiment: Cell proliferation assay (CellTiter 96 Aqueous One), Hep3B; format: cell-based; details: Hep3B (HCC), 48 hours of treatment
Procedure: as §2, §3, §4, §5

[6] = system: PLC/PRF/5 cells (hepatocellular carcinoma); experiment: Cell proliferation assay (CellTiter 96 Aqueous One), PLC/PRF/5; format: cell-based; details: PLC/PRF/5 (HCC), 48 hours of treatment
Procedure: as §2, §3, §4, §5

Sequence of human G9a enzyme (Q96KQ7 whole entry): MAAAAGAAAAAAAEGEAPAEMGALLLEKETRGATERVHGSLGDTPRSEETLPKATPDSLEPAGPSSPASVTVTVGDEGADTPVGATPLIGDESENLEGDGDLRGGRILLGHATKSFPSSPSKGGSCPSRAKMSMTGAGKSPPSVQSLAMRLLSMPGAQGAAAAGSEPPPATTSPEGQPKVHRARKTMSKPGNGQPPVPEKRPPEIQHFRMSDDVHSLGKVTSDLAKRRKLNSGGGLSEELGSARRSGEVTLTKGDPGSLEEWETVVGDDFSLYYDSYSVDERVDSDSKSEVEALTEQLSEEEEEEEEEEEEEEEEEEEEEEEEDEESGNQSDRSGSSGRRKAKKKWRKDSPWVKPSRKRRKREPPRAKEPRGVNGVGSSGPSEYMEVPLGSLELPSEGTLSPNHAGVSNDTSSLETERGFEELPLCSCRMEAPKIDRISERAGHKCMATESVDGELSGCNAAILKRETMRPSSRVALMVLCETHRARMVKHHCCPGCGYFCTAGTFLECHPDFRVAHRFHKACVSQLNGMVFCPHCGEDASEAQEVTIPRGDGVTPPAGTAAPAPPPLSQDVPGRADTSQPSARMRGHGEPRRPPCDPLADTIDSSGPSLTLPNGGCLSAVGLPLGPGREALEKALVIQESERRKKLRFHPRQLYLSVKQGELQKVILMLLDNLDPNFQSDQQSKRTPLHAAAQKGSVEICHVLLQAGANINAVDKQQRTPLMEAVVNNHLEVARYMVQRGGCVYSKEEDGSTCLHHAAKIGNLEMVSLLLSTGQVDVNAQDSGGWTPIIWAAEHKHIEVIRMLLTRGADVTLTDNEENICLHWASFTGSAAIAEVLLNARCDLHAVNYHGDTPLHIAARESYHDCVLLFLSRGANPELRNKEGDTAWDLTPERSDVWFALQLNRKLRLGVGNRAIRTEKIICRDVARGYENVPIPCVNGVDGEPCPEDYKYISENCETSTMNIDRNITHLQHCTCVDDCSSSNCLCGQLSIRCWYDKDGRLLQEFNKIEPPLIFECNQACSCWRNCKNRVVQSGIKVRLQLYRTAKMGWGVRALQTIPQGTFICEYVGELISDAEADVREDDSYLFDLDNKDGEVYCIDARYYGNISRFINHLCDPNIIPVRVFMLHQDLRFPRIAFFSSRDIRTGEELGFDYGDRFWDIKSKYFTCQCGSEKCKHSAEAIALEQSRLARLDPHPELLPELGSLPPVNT

| SMILES | IC50 (human G9a enzyme) [nM] | IC50 (human DNMT1) [nM] | GI50 [1] [nM] | GI50 [2] [nM] | GI50 [3] [nM] | GI50 ([4]; Homo sapiens) [nM] | GI50 ([5]; Homo sapiens) [nM] | GI50 ([6]; Homo sapiens) [nM] | GI50 [4] [nM] | GI50 [5] [nM] | GI50 [6] [nM] |
| --- | --- | --- | --- | --- | --- | --- | --- | --- | --- | --- | --- |
| COc1cc2c(cc1OCCCN1CCCC1)nc(-c1ccc(C)o1)c1cc(CC3CCN(C)CC3)[nH]c12 [Compound 1-02, 8-methoxy-4-(5-methyl-2-furyl)-2-[(1-methyl-4-piperidyl)methyl]-7-(3-pyrrolidin-1-ylpropoxy)-1H-pyrrolo[3,2-c]quinoline] | 100 to 500 | 100 to 500 | 100 to 1000 | 100 to 1000 | 1000 to 10000 | 1000 to 10000 | 1000 to 10000 | 100 to 1000 |  |  |  |
| COc1cc2c(cc1OCCCN1CCCC1)nc(-c1ccc(C)o1)c1cc(CC3CCN(C(C)C)CC3)[nH]c12 [Compound 1-03, 2-[(1-isopropyl-4-piperidyl)methyl]-8-methoxy-4-(5-methyl-2-furyl)-7-(3-pyrrolidin-1-ylpropoxy)-1H-pyrrolo[3,2-c]quinoline] | 100 to 500 | 500 to 1000 | 1000 to 10000 |  |  | 1000 to 10000 | 1000 to 10000 | 100 to 1000 |  |  |  |
| CCc1ccc(-c2nc3cc(OCCCN4CCCC4)c(OC)cc3c3[nH]c(CC4CCN(C)CC4)cc23)o1 [Compound 1-04] | 100 to 500 | 500 to 1000 | 100 to 1000 |  |  |  |  |  | 1000 to 10000 | 1000 to 10000 | 100 to 1000 |
| COc1cc2c3c(c(-c4ccc(C)o4)nc2cc1OCCCN1CCCC1)CCC(CC1CCN(C)CC1)N3 (centres unmarked) [Compound 2-06, 9-methoxy-5-(5-methyl-2-furyl)-2-[(1-methyl-4-piperidyl)methyl]-8-(3-pyrrolidin-1-ylpropoxy)-1,2,3,4-tetrahydrobenzo[h][1,6]naphthyridine] | < 100 | 100 to 500 | 1000 to 10000 |  |  | ≥ 10000 | ≥ 10000 | 1000 to 10000 |  |  |  |
| COc1cc2c3c(c(-c4ccc(C)o4)nc2cc1OCCCN1CCCC1)CCC(CC1CCN(C2CC2)CC1)N3 (centres unmarked) [Compound 2-07, 2-[(1-cyclopropyl-4-piperidyl)methyl]-9-methoxy-5-(5-methyl-2-furyl)-8-(3-pyrrolidin-1-ylpropoxy)-1,2,3,4-tetrahydrobenzo[h][1,6]naphthyridine] | < 100 | 500 to 1000 | 1000 to 10000 |  |  | 1000 to 10000 | 1000 to 10000 | 1000 to 10000 |  |  |  |
| COc1cc2c3c(c(-c4ccc(C)o4)nc2cc1OCCCN1CCCC1)CCC(CC1CCN(C(C)C)CC1)N3 (centres unmarked) [Compound 2-08, 2-[(1-isopropyl-4-piperidyl)methyl]-9-methoxy-5-(5-methyl-2-furyl)-8-(3-pyrrolidin-1-ylpropoxy)-1,2,3,4-tetrahydrobenzo[h][1,6]naphthyridine] | < 100 | 500 to 1000 | 1000 to 10000 |  |  | 1000 to 10000 | 1000 to 10000 | 1000 to 10000 |  |  |  |
